Experimental data as given in PubChem BioAssay (NCI).
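Dose response: 5 concentrations. Exposure: 48 h. Format: 96-well plates. Endpoint: linear interpolation; highest concentration if not reached. GI50 marks 50% less growth. TGI marks complete inhibition of growth.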

Key:
Assay in all cases: NCI tumour cell line growth inhibition, 48 h
786-0 renal = test system: 786-0 renal
A498 renal = test system: A498 renal
A549 NSCLC = test system: A549 NSCLC
ACHN renal = test system: ACHN renal
BT-549 breast = test system: BT-549 breast
CAKI-1 renal = test system: CAKI-1 renal
CCRF-CEM leukemia = test system: CCRF-CEM leukemia
COLO 205 colon = test system: COLO 205 colon
DU-145 prostate = test system: DU-145 prostate
EKVX NSCLC = test system: EKVX NSCLC
HCC-2998 colon = test system: HCC-2998 colon
HCT-116 colon = test system: HCT-116 colon
HCT-15 colon = test system: HCT-15 colon
HL-60(TB) leukemia = test system: HL-60(TB) leukemia
HOP-62 NSCLC = test system: HOP-62 NSCLC
HOP-92 NSCLC = test system: HOP-92 NSCLC
HS 578T breast = test system: HS 578T breast
HT29 colon = test system: HT29 colon
IGROV1 ovarian = test system: IGROV1 ovarian
K-562 leukemia = test system: K-562 leukemia
KM12 colon = test system: KM12 colon
LOX IMVI melanoma = test system: LOX IMVI melanoma
M14 melanoma = test system: M14 melanoma
MALME-3M melanoma = test system: MALME-3M melanoma
MCF7 breast = test system: MCF7 breast
MDA-MB-231 breast = test system: MDA-MB-231 breast
MDA-MB-435 = test system: MDA-MB-435
MDA-MB-468 breast = test system: MDA-MB-468 breast
MOLT-4 leukemia = test system: MOLT-4 leukemia
NCI-H226 lung = test system: NCI-H226 lung
NCI-H23 lung = test system: NCI-H23 lung
NCI-H460 lung = test system: NCI-H460 lung
NCI-H522 lung = test system: NCI-H522 lung
NCI/ADR-RES ovarian = test system: NCI/ADR-RES ovarian
OVCAR-3 ovarian = test system: OVCAR-3 ovarian
OVCAR-4 ovarian = test system: OVCAR-4 ovarian
OVCAR-5 ovarian = test system: OVCAR-5 ovarian
OVCAR-8 ovarian = test system: OVCAR-8 ovarian
PC-3 prostate = test system: PC-3 prostate
RPMI-8226 leukemia = test system: RPMI-8226 leukemia
RXF 393 renal = test system: RXF 393 renal
SF-268 CNS = test system: SF-268 CNS
SF-295 CNS = test system: SF-295 CNS
SF-539 CNS = test system: SF-539 CNS
SK-MEL-2 melanoma = test system: SK-MEL-2 melanoma
SK-MEL-28 melanoma = test system: SK-MEL-28 melanoma
SK-MEL-5 melanoma = test system: SK-MEL-5 melanoma
SK-OV-3 ovarian = test system: SK-OV-3 ovarian
SN12C renal = test system: SN12C renal
SNB-19 CNS = test system: SNB-19 CNS
SNB-75 CNS = test system: SNB-75 CNS
SR leukemia = test system: SR leukemia
SW-620 colon = test system: SW-620 colon
T-47D breast = test system: T-47D breast
TK-10 renal = test system: TK-10 renal
U251 CNS = test system: U251 CNS
UACC-257 melanoma = test system: UACC-257 melanoma
UACC-62 melanoma = test system: UACC-62 melanoma
UO-31 renal = test system: UO-31 renal

Compound: NS(=O)(=O)c1ccc(N2N=C(c3ccc(NC(=O)Nc4ccccc4)cc3)CC2c2ccc(Br)cc2)cc1 (configuration not stated)
- GI50 (786-0 renal): 2950 nM
- TGI (786-0 renal): 10.1 µM
- GI50 (A498 renal): 1980 nM
- TGI (A498 renal): 4.99 µM
- GI50 (A549 NSCLC): 3.08 µM
- TGI (A549 NSCLC): 11.3 µM
- GI50 (ACHN renal): 2880 nM
- TGI (ACHN renal): 8.93 µM
- GI50 (BT-549 breast): 2030 nM
- TGI (BT-549 breast): 4.22 µM
- GI50 (CAKI-1 renal): 2640 nM
- TGI (CAKI-1 renal): 8.44 µM
- GI50 (CCRF-CEM leukemia): 2340 nM
- TGI (CCRF-CEM leukemia): 5.95 µM
- GI50 (COLO 205 colon): 1790 nM
- TGI (COLO 205 colon): 3.39 µM
- GI50 (DU-145 prostate): 2870 nM
- TGI (DU-145 prostate): 8.67 µM
- GI50 (EKVX NSCLC): 3.19 µM
- TGI (EKVX NSCLC): 13.6 µM
- GI50 (HCC-2998 colon): 1600 nM
- TGI (HCC-2998 colon): 3.06 µM
- GI50 (HCT-116 colon): 1750 nM
- TGI (HCT-116 colon): 3.56 µM
- GI50 (HCT-15 colon): 2580 nM
- TGI (HCT-15 colon): 10.1 µM
- GI50 (HL-60(TB) leukemia): 2120 nM
- TGI (HL-60(TB) leukemia): 5.59 µM
- GI50 (HOP-62 NSCLC): 2010 nM
- TGI (HOP-62 NSCLC): 4.78 µM
- GI50 (HOP-92 NSCLC): 1980 nM
- TGI (HOP-92 NSCLC): 5.24 µM
- GI50 (HS 578T breast): 2520 nM
- TGI (HS 578T breast): 7.86 µM
- GI50 (HT29 colon): 1920 nM
- TGI (HT29 colon): 4.53 µM
- GI50 (IGROV1 ovarian): 2860 nM
- TGI (IGROV1 ovarian): 10.6 µM
- GI50 (K-562 leukemia): 3.16 µM
- TGI (K-562 leukemia): > 100 µM
- GI50 (KM12 colon): 2620 nM
- TGI (KM12 colon): 6.92 µM
- GI50 (LOX IMVI melanoma): 1730 nM
- TGI (LOX IMVI melanoma): 3.12 µM
- GI50 (M14 melanoma): 2110 nM
- TGI (M14 melanoma): 4.5 µM
- GI50 (MALME-3M melanoma): 2150 nM
- TGI (MALME-3M melanoma): 5.76 µM
- GI50 (MCF7 breast): 2600 nM
- TGI (MCF7 breast): 10.2 µM
- GI50 (MDA-MB-231 breast): 1930 nM
- TGI (MDA-MB-231 breast): 4.03 µM
- GI50 (MDA-MB-435): 2020 nM
- TGI (MDA-MB-435): 7.47 µM
- GI50 (MDA-MB-468 breast): 2010 nM
- TGI (MDA-MB-468 breast): 5.38 µM
- GI50 (MOLT-4 leukemia): 2660 nM
- TGI (MOLT-4 leukemia): 11.4 µM
- GI50 (NCI-H226 lung): 2340 nM
- TGI (NCI-H226 lung): 6.76 µM
- GI50 (NCI-H23 lung): 1850 nM
- TGI (NCI-H23 lung): 3.73 µM
- GI50 (NCI-H460 lung): 1920 nM
- TGI (NCI-H460 lung): 4.25 µM
- GI50 (NCI-H522 lung): 2670 nM
- TGI (NCI-H522 lung): 8.23 µM
- GI50 (NCI/ADR-RES ovarian): 1910 nM
- TGI (NCI/ADR-RES ovarian): 4 µM
- GI50 (OVCAR-3 ovarian): 1860 nM
- TGI (OVCAR-3 ovarian): 4.34 µM
- GI50 (OVCAR-4 ovarian): 2550 nM
- TGI (OVCAR-4 ovarian): 10.5 µM
- GI50 (OVCAR-5 ovarian): 2140 nM
- TGI (OVCAR-5 ovarian): 5.4 µM
- GI50 (OVCAR-8 ovarian): 3.55 µM
- TGI (OVCAR-8 ovarian): 16.1 µM
- GI50 (PC-3 prostate): 2730 nM
- TGI (PC-3 prostate): 9.76 µM
- GI50 (RPMI-8226 leukemia): 2110 nM
- TGI (RPMI-8226 leukemia): 5.26 µM
- GI50 (RXF 393 renal): 1820 nM
- TGI (RXF 393 renal): 4.96 µM
- GI50 (SF-268 CNS): 2630 nM
- TGI (SF-268 CNS): 11.2 µM
- GI50 (SF-295 CNS): 3.18 µM
- TGI (SF-295 CNS): 12.7 µM
- GI50 (SF-539 CNS): 2060 nM
- TGI (SF-539 CNS): 4.63 µM
- GI50 (SK-MEL-2 melanoma): 5.38 µM
- TGI (SK-MEL-2 melanoma): 19.9 µM
- GI50 (SK-MEL-28 melanoma): 2660 nM
- TGI (SK-MEL-28 melanoma): 7.26 µM
- GI50 (SK-MEL-5 melanoma): 1770 nM
- TGI (SK-MEL-5 melanoma): 3.39 µM
- GI50 (SK-OV-3 ovarian): 3.48 µM
- TGI (SK-OV-3 ovarian): 14.2 µM
- GI50 (SN12C renal): 1680 nM
- TGI (SN12C renal): 3.15 µM
- GI50 (SNB-19 CNS): 4.11 µM
- TGI (SNB-19 CNS): 15.7 µM
- GI50 (SNB-75 CNS): 1760 nM
- TGI (SNB-75 CNS): 11.7 µM
- GI50 (SR leukemia): 2710 nM
- TGI (SR leukemia): 9.08 µM
- GI50 (SW-620 colon): 2500 nM
- GI50 (T-47D breast): 2870 nM
- TGI (T-47D breast): 11.6 µM
- GI50 (TK-10 renal): 3.13 µM
- TGI (TK-10 renal): 12.4 µM
- GI50 (U251 CNS): 2720 nM
- TGI (U251 CNS): 8.65 µM
- GI50 (UACC-257 melanoma): 5.32 µM
- TGI (UACC-257 melanoma): 20.4 µM
- GI50 (UACC-62 melanoma): 1640 nM
- TGI (UACC-62 melanoma): 3.23 µM
- GI50 (UO-31 renal): 2570 nM
- TGI (UO-31 renal): 10.7 µM
